Reference: US10357479B2, “Angiotensin II receptor antagonist for the prevention or treatment of systemic diseases in cats” (priority 2006, dated 2019)
Where “and” joins values, the source holds several entries; their conditions need not be identical. Equal values may be shown once. Entries after “also recorded” stand apart in the source; their conditions may differ.

Columns and labels:
[1] = Pharmacokinetics and absolute bioavailability in plasma after single oral or intravenous administration (Example 1); details: for AUC(0-inf) / half-life / t max / V/f or V / t ½ / AUC 0 → ∞: single dose 1 mg/kg, mean; for half-life: t ½
Procedure: Four clinically healthy male and female domestic short hair cats (HsdCpb: CADS) with a body weight range of 2.6-4.2 kg were used in this study. The animals were randomly allocated to 2 groups, 2 animals per group.
Blood samples were drawn at 0 h (i.e. prior to treatment), 5 (after i. v. injection only), 15, 30 and 60 min as well as 2, 4, 8, 24, 72 and 96 h after each treatment. Clinical observations were also conducted at these time points. Plasma samples were sent to the analytical laboratory and analysed there using a validated method. The plasma levels measured in each animal were subjected to various pharmacokinetic calculations.

[2] = tested on: angiotensin II receptor 1 (AT-1); assay: Escalating intravenous dose: blood pressure response of anaesthetised cats after angiotensin II (Example 2); format: in vivo
Procedure: Four clinically healthy adult male and female domestic short hair cats (HsdCpb: CADS) with a body weight range of 2.5-3.5 kg were used in this study. The animals were anaesthetised with sodium pentobarbital and anaesthesia was sustained by continuous infusion of diluted anaesthetic. A catheter was inserted into a carotid artery and connected to a pressure transducer for registration of the arterial pressure. […] The systolic and diastolic blood pressure [mmHg] in the carotid artery were recorded and analysed at discrete intervals as described below.
At first, the diastolic blood pressure was registered 6 times every 5 minutes. The mean of these 6 measurements were set as the baseline blood pressure. Then two bolus injections of A2 were administered at a dose of 0.1 μg/kg in an interval of 10 min. The maximum increase in diastolic blood pressure obtained from the second A2-bolus relative to the baseline blood pressure was taken as the control angiotensin II-blood pressure response (i.e. reference value).
Thirty minutes later the diastolic blood pressure was recorded, immediately followed by bolus injection of A2 at a dose of 0.1 μg/kg and the maximum increase in diastolic blood pressure was obtained. This procedure was to be repeated accordingly until the intended endpoint of the experiment (i.e. an A2-pressure response ≤10% of the control A2-pressure response corresponding to ≥90% inhibition) was reached. […] At the end of the experiment, the anaesthetised animals were euthanized with an overdose of sodium pentobarbital.

[3] = Safety after repeated oral administration over four weeks (Example 3); format: in vivo, cats
Procedure: The animals were allocated to 3 groups, 4 animals per group. […] The bottles with the test/control article looked identical with the exception of the animal no. in order to achieve blinding.
Blood samples for haematology and clinical chemistry were collected from the animals on days-1 (i.e. prior to the first treatment) and again on days 3, 7, 14, 28. Body weights were measured weekly and electrocardiography recording were made on days-1, 14, 21 and 28. A detailed physical examination including determination of rectal temperature and respiratory rate was carried out on days-1, 7, 14, 22 and 28. Systolic blood pressure (once daily) and heart rate (twice daily) were determined five days per week beginning prior to treatment until necropsy. The palatability of the administered article was assessed at various time points throughout treatment using a scoring system. On day 28 of the study, all animals were subjected to necropsy and stomach and kidneys were examined histopathologically. Relevant parameters were analysed using appropriate statistical procedures.

[4] = tested on: angiotensin II receptor 1 (AT-1); assay: Angiotensin II induced increase in diastolic blood pressure in laboratory cats after oral dosing; format: in vivo; details: approximately 24 hours after the last oral dosing, target dose vs Placebo
[5] = human patients, 160 mg daily; cited from earlier work
[6] = both, domestic short hair (HsdCpb: CADS), plasma, po, 1 mg/kg
[7] = oral once daily days 0 to 27, 1 and 3 mg/kg

Q: With CCCc1nc2c(C)cc(-c3nc4ccccc4n3C)cc2n1Cc1ccc(-c2ccccc2C(=O)O)cc1 [telmisartan, 4′-[2-n-propyl-4-methyl-6-(1-methylbenzimidazol-2-yl)-benzimidazol-1-ylmethyl]-biphenyl-2-carboxylic acid] as the compound, how does the “plasma concentrations at 24 h” value ([1]; 24 h after both routes, orally and intravenously) read?
A: The value was “No quantifiable plasma concentrations”.

Q: And the “time until which mean plasma concentrations increased” value ([1]; after oral administration)?
A: Its value is 15 to 30 min.

Q: And the bioavailability ([1]; both, domestic short hair (HsdCpb: CADS), cat, plasma, po, 1 mg/kg, absolute bioavailability after oral administration, oral 1 mg/kg)?
A: Its bioavailability is 33%.

Q: What about the MRT ([1]; both, domestic short hair (HsdCpb: CADS), plasma, iv, 1 mg/kg) of the same compound?
A: The MRT was 0.789 h.

Q: What about the AUC(0-inf) ([1]; both, domestic short hair (HsdCpb: CADS), plasma, iv, 1 mg/kg, i.v., first AUC line (r5)) of the same compound?
A: Its AUC(0-inf) is 385 ng·h/mL.

Q: And the AUC(0-inf) ([1]; both, domestic short hair (HsdCpb: CADS), plasma, iv, 1 mg/kg, i.v., second AUC line (r7))?
A: Its AUC(0-inf) is 376 ng·h/mL.

Q: And the half-life ([1]; both, domestic short hair (HsdCpb: CADS), plasma, iv, 1 mg/kg, i.v.)?
A: The half-life was 135 min.

Q: And the CL/F [1, 6]?
A: The CL/F was 172 mL/min/kg.

Q: What about the Cmax [1, 6] of the same compound?
A: Its Cmax is 138 ng/mL.

Q: And the MRT [1, 6]?
A: The MRT was 1.97 h.

Q: And the AUC(0-inf) ([1]; both, domestic short hair (HsdCpb: CADS), plasma, po, 1 mg/kg, oral, first AUC line (r5))?
A: The AUC(0-inf) was 150 ng·h/mL.

Q: What about the AUC(0-inf) ([1]; both, domestic short hair (HsdCpb: CADS), plasma, po, 1 mg/kg, oral, second AUC line (r7)) of the same compound?
A: The AUC(0-inf) was 139 ng·h/mL.

Q: And the bioavailability ([1]; both, domestic short hair (HsdCpb: CADS), plasma, po, 1 mg/kg, absolute bioavailability after oral administration, oral 1 mg/kg)?
A: Its bioavailability is 33.6%.

Q: What about the bioavailability ([1]; both, domestic short hair (HsdCpb: CADS), plasma, po, 1 mg/kg, absolute bioavailability, point estimate, for AUC 0→t, oral vs i.v. 1 mg/kg) of the same compound?
A: The bioavailability was 31.6%.

Q: And the bioavailability ([1]; both, domestic short hair (HsdCpb: CADS), plasma, po, 1 mg/kg, absolute bioavailability, point estimate, for AUC 0→∞, oral vs i.v. 1 mg/kg)?
A: The bioavailability was 33.6%.

Q: What about the t max ([1]; both, domestic short hair (HsdCpb: CADS), plasma, po, 1 mg/kg, t max, oral) of the same compound?
A: The t max was 26.4 min.

Q: What about the half-life ([1]; both, domestic short hair (HsdCpb: CADS), plasma, po, 1 mg/kg, oral) of the same compound?
A: The half-life was 130 min.

Q: And the bioavailability ([1]; domestic short hair (HsdCpb: CADS), plasma, po, 1 mg/kg, bioavailability, individual data, animal no. 101, for AUC 0→∞)?
A: The bioavailability was 11.6%.

Q: And the bioavailability ([1]; domestic short hair (HsdCpb: CADS), plasma, po, 1 mg/kg, bioavailability, individual data, the other animals, for AUC 0→∞)?
A: Its bioavailability is 38.7 to 58.2%.

Q: What about the clinical signs ([1]; entire course of the study, single oral or i.v. 1 mg/kg) of the same compound?
A: Its clinical signs is “No specific clinical signs”.

Q: What about the “V/f or V” value ([1]; i.v., 1 mg/kg) of the same compound?
A: The value was 8.8 L/kg and 8.856 L/kg.

Q: What about the “t ½” value ([1]; i.v., 1 mg/kg) of the same compound?
A: The value was 2.252 h.

Q: And the “AUC 0 → ∞” value ([1]; i.v., first AUC line (r5), 1 mg/kg)?
A: The value was 384.751 ng·h/mL.

Q: And the tolerability ([1]; in vivo, 1 mg/kg)?
A: The tolerability was “well tolerated”.

Q: What about the “V/f or V” value ([1]; oral, 1 mg/kg) of the same compound?
A: Its value is 20.4 L/kg and 20.453 L/kg.

Q: And the t max ([1]; oral, 1 mg/kg)?
A: The t max was 26.3 min.

Q: And the “t ½” value ([1]; oral, 1 mg/kg)?
A: The value was 2.169 h.

Q: And the “AUC 0 → ∞” value ([1]; oral, first AUC line (r5), 1 mg/kg)?
A: The value was 150.426 ng·h/mL.

Q: What about the “effect of further dose escalation” value ([2]; all 4 animals) of the same compound?
A: Its value is “did not produce markedly higher effects; also recorded: did not produce an appropriate dose response relationship”.

Q: What about the “maximal inhibition of the blood pressure increase relative to the control angiotensin II-blood pressure response” value ([2]; animal no. 101, reached at cumulative i.v. dose of 0.05 mg/kg) of the same compound?
A: The value was 50%.

Q: And the “inhibition of the angiotensin II diastolic blood pressure response” value ([2]; animal no. 102, after the 1st i.v. dose of 0.04 mg/kg)?
A: Its value is 73%.

Q: And the “inhibition of the angiotensin II diastolic blood pressure response” value ([2]; animal no. 151, cumulative i.v. dose of 0.04 mg/kg)?
A: Its value is 73%.

Q: And the “inhibition of the angiotensin II diastolic blood pressure response” value ([2]; animal no. 152, after the 1st i.v. dose of 0.02 mg/kg)?
A: Its value is 73%.

Q: And the “maximal inhibition of the blood pressure increase relative to the control angiotensin II-blood pressure response” value ([2]; animal nos. 102, 151, 152, final cumulative i.v. dose 0.34-0.4 mg/kg)?
A: The value was 80-95%.

Q: What about the “inhibition of the angiotensin II diastolic blood pressure response” value ([2]; cumulative i.v. dose of 0.04 mg/kg, 3 of 4 animals) of the same compound?
A: Its value is 73%.

Q: And the “inhibition of the blood pressure response” value ([2]; doses of less than 0.05 mg per kg body weight, majority of the tested cats)?
A: Its value is “about 75%”.

Q: What about the “effect on diastolic blood pressure increase after angiotensin II” value ([2]; escalating intravenous doses, anaesthetised cats) of the same compound?
A: Its value is “led to an inhibition of the diastolic blood pressure increase”.

Q: What about the “endpoint of a 90% inhibition of the A2-pressure response” value ([2]; several consecutive escalating i.v. doses) of the same compound?
A: Its value is “could not be reached in 3 of 4 animals”.

Q: What about the “histopathology of stomach and kidneys” value ([3]; day 28) of the same compound?
A: The value was “no histopathological findings considered to be associated with the treatment”.

Q: And the necropsy findings ([3]; day 28)?
A: The necropsy findings was “No animal showed any specific finding”.

Q: What about the “systolic blood pressure, changes from baseline vs controls” value ([3]; groups II (1 mg/kg) and III (3 mg/kg)) of the same compound?
A: The value was “did not reveal significant differences”.

Q: What about the “systolic blood pressure vs control group I” value ([3]; groups II (1 mg/kg) and III (3 mg/kg), single occasions after initiation of treatment) of the same compound?
A: Its value is “significantly lower”.

Q: What about the “systolic blood pressure, course of the mean values over time” value ([3]; groups II and III vs group I, from day 20 onwards / towards the end of the study) of the same compound?
A: The value was “tendency of a slight reduction”.

Q: And the “body weights, rectal temperature, respiratory and heart rates” value [3, 7]?
A: The value was “No significant differences”.

Q: And the clinical findings [3, 7]?
A: The clinical findings was “No clinical findings clearly attributable to the treatment”.

Q: And the urinalysis [3, 7]?
A: Its urinalysis is “not provide evidence of a treatment effect”.

Q: What about the “physical and ECG examinations” value ([3]; oral once daily days 0 to 27, 1 and 3 mg/kg, all time points) of the same compound?
A: The value was “did not reveal treatment-related findings”.

Q: And the “haematological and clinical chemistry parameters including differential leukocyte count” value ([3]; oral once daily days 0 to 27, 1 and 3 mg/kg, vs concurrent controls)?
A: Its value is “No treatment-related differences”.

Q: What about the “diastolic blood pressure responses to increasing intravenous doses of Angiotensin II” value [4] of the same compound?
A: Its value is “significantly reduced”.

Q: And the “plasma level (Cmax±SD)” value [5]?
A: The value was “about 2800±2400 ng/ml”.
